{"source": "patent US20250032658A1", "about": "“SYSTEMS AND METHODS FOR NEUTRALIZATION OF AIRBORNE ALLERGENS WITH ORGANIC ACIDS” (The Clorox Company, priority 2023, published 2025)", "key": {"[1]": {"conditions": "room temperature and standard pressure; cited from earlier work"}, "[2]": {"conditions": "cited from earlier work"}, "[3]": {"assay": "pKa / acid form of lactic acid", "format": "physicochemical", "conditions": "at a pH of 2.2", "text": "In some example embodiments, the pH of the anti-allergen formulations can be kept low. A low pH can enhance the organic acid efficacy (e.g., lactic acid efficacy) in neutralization of airborne allergens. Typically, pH is kept a least 1 unit below pKa of the organic acid to ensure majority (at least 90%) of acid stays in the active (conjugate acid) form. […]."}}, "note": "Where two headings read alike, the source gives them in different places.", "data": [{"smiles": "NCC(=O)O", "note": "[glycine]", "values": [{"measurement": "Vapor Pressure", "setting": "[1]", "value": 0.000017, "unit": "Pa"}]}, {"smiles": "CCCCCCC(=O)O", "note": "[heptanoic acid]", "values": [{"measurement": "Vapor Pressure", "setting": "[1]", "value": 1.35, "unit": "Pa"}, {"measurement": "Solubility in water", "setting": "[2]; at ~20° C.", "value": "0.2 g of compound in 100 g of water"}]}, {"smiles": "O=C(O)CC(O)C(=O)O", "note": "(stereo not drawn) [malic acid]", "values": [{"measurement": "Vapor Pressure", "setting": "[1]", "value": 0.000004, "unit": "Pa"}, {"measurement": "Solubility in water", "setting": "[2]; at ~20° C.", "value": "64.7 g of compound in 100 g of water"}]}, {"smiles": "O=C(O)/C=C\\C(=O)O", "note": "[maleic acid]", "values": [{"measurement": "Solubility in water", "setting": "[2]; at ~20° C.", "value": "47.88 g of compound in 100 g of water"}]}, {"smiles": "CCCCC(=O)O", "note": "[valeric acid]", "values": [{"measurement": "Vapor Pressure", "setting": "[1]", "value": 100, "unit": "Pa"}, {"measurement": "Solubility in water", "setting": "[2]; at ~20° C.", "value": "3.75 g of compound in 100 g of water"}]}, {"smiles": "O=C(O)CO", "note": "[glycolic acid]", "values": [{"measurement": "Vapor Pressure", "setting": "[1]", "value": 0.41, "unit": "Pa"}]}, {"smiles": "C/C=C/C=C/C(=O)O", "note": "[sorbic acid]", "values": [{"measurement": "Vapor Pressure", "setting": "[1]", "value": 0.018, "unit": "Pa"}, {"measurement": "Solubility in water", "setting": "[2]; at ~20° C.", "value": "0.156 g of compound in 100 g of water"}]}, {"smiles": "CC(=O)C(=O)O", "note": "[pyruvic acid]", "values": [{"measurement": "Vapor Pressure", "setting": "[1]", "value": 172, "unit": "Pa"}, {"measurement": "Solubility in water", "setting": "[2]; at ~20° C.", "value": "100 g of compound in 100 g of water"}]}, {"smiles": "CCC(=O)O", "note": "[propionic acid]", "values": [{"measurement": "Vapor Pressure", "setting": "[1]", "value": 390, "unit": "Pa"}]}, {"smiles": "O=C(O)CC(=O)O", "note": "[malonic acid]", "values": [{"measurement": "Vapor Pressure", "setting": "[1]", "value": 0.00049, "unit": "Pa"}]}, {"smiles": "CCCCCC(=O)O", "note": "[hexanoic acid]", "values": [{"measurement": "Vapor Pressure", "setting": "[1]", "value": 5.80, "unit": "Pa"}, {"measurement": "Solubility in water", "setting": "[2]", "value": "1.03 g of compound in 100 g of water"}]}, {"smiles": "CC(=O)O", "note": "[acetic acid]", "values": [{"measurement": "Vapor Pressure", "setting": "[1]", "value": 2080, "unit": "Pa"}]}, {"smiles": "O=C(O)CCCCC(=O)O", "note": "[adipic acid]", "values": [{"measurement": "Vapor Pressure", "setting": "[1]", "value": 9.70, "unit": "Pa"}]}, {"smiles": "CCCCCCCC(=O)O", "note": "[octanoic acid]", "values": [{"measurement": "Vapor Pressure", "setting": "[1]", "value": 0.49, "unit": "Pa"}]}, {"smiles": "O=C(O)c1ccccc1", "note": "[benzoic acid]", "values": [{"measurement": "Vapor Pressure", "setting": "[1]", "value": 0.11, "unit": "Pa"}]}, {"smiles": "O=C(O)CC(O)(CC(=O)O)C(=O)O", "note": "[citric acid]", "values": [{"measurement": "Vapor Pressure", "setting": "[1]", "value": 0.000002, "unit": "Pa"}]}, {"smiles": "O=C(O)/C=C/C(=O)O", "note": "[fumaric acid]", "values": [{"measurement": "Solubility in water", "setting": "[2]; at ~20° C.", "value": "0.7 g of compound in 100 g of water"}]}, {"smiles": "CS(=O)(=O)O", "note": "[methane sulfonic acid]", "values": [{"measurement": "Vapor Pressure", "setting": "[1]", "value": 0.048, "unit": "Pa"}, {"measurement": "Solubility in water", "setting": "[2]; at ~20° C.", "value": "100 g of compound in 100 g of water"}]}, {"smiles": "CC(O)C(=O)O", "note": "(stereo not drawn) [lactic acid]", "values": [{"measurement": "lactic acid in the acidic form", "setting": "[3]", "value": "at least 95%"}, {"measurement": "Vapor Pressure", "setting": "[1]", "value": 10.00, "unit": "Pa"}]}, {"smiles": "CCCC(=O)O", "note": "[butyric acid]", "values": [{"measurement": "Vapor Pressure", "setting": "[1]", "value": 100, "unit": "Pa"}]}, {"smiles": "CC(=O)CCC(=O)O", "note": "[levulinic acid]", "values": [{"measurement": "Vapor Pressure", "setting": "[1]", "value": 0.374, "unit": "Pa"}, {"measurement": "Solubility in water", "setting": "[2]; at ~20° C.", "value": "79.13 g of compound in 100 g of water"}]}]}
